From PubChem BioAssay (NCI) come the findings set out here.

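Exposure lasted 48 hours, with cells grown in 96-well plates and compounds tested at five concentrations. GI50: concentration for 50% inhibition of growth. TGI marks complete inhibition of growth.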

One experiment concerns NCI-H226 lung. In words: NCI anticancer screen, dose series, 48 h.
The molecule `Cc1ccc(NC(=O)/C(Cc2nc3ccc([N+](=O)[O-])cc3[nH]c2=O)=N\NC(=O)C[n+]2ccccc2)c(C)c1` yielded a TGI of more than 100 µM.

The molecule `COc1ccc(/C=N/n2c(C)nc3c(sc(=S)n3-c3ccccc3)c2=O)cc1` displayed a TGI of more than 100 µM.

In turn, `CCN1C(=O)C(=C/C=C/c2ccc(N(CC)CC)cc2)C(=O)N(CC)C1=S` yielded a TGI of more than 100 µM.

Regarding `CC1=NNC(=O)C1C1CC(c2c[nH]c3ccccc23)=NN=C1Cl` (configuration not stated), the TGI is more than 100 µM.

Take `CC(=O)Oc1c(C)c(C)c2c(c1C)CCC(C)(CC(=O)OCCCCCCCCCCC[P+](c1ccccc1)(c1ccccc1)c1ccccc1)O2` (configuration not stated): the GI50 was 0.386 µM and the TGI came to 25.4 µM.

`COc1cc(C2c3cc4c(cc3[C@@H](Nc3ccc5c(c3)OCO5)C3COC(=O)[C@H]23)OCO4)cc(OC)c1O` (some centres not stated) returned a TGI of 2.06 µM.

The next experiment concerns IGROV1 ovarian. The experiment is described as follows: NCI anticancer screen, dose series, 48 h.
`O=C(CC(C(=O)c1ccco1)c1ccco1)c1ccco1` (configuration not stated) returned a TGI of more than 100 µM.

Take `COc1cccc2c1OCC1Cc3ccccc3OC21` (configuration not stated): the TGI was more than 100 µM.

The molecule `COc1ccc(OC)c2sc(N3C(=O)/C(=C/c4cccc([N+](=O)[O-])c4)N=C3c3ccccc3)nc12` gave a TGI of more than 100 µM.

The molecule `Cc1cccc(/C(Br)=C2/OC(=O)c3ccccc32)c1` had a TGI of more than 100 µM.

Regarding `CC#CC(O)(C(=O)OC1CC(C)N(C)C(C)(C)C1)C1CCCC1` (configuration not stated), the TGI is more than 100 µM.

Regarding `CC1(C)OC2COC3([C@@H]4OC(C)(C)O[C@@H]4CO)OC(C)(C)OC3C2O1` (some centres not stated), the TGI was more than 100 µM.

Consider `CCOC(=O)C1CCC(=O)N1C(=O)c1ccccc1Cl` (configuration not stated), for which the TGI is more than 100 µM.

`CCOC(=O)c1ccc(Nc2nc3ccc(C(F)(F)F)cc3nc2C(=O)OCC)cc1`: the TGI is more than 100 µM.

As for `COc1ccc(C2c3cc4c(cc3OC(NCCO)C2C)OCO4)cc1` (configuration not stated), the TGI was more than 100 µM.

Molecule `COc1cc(/C=C2\CCC(C)/C(=C\c3cc(OC)c(OC)c(OC)c3)C2=O)cc(OC)c1OC` (configuration not stated) returned a TGI of 6.58 µM.

`COC(=O)[C@H](Cc1ccccc1)NC(=O)N(CCC#N)CCN(C(=O)N[C@@H](Cc1ccccc1)C(=O)OC)c1ccccc1` registered a TGI of 42.9 µM.

`C/C(=N\Nc1nc2ccccc2s1)c1ccc2ccccc2n1` came in with a TGI of 47.1 µM.

Turning to `CN1N=C(c2ccncc2)OC1c1ccccc1F` (configuration not stated), the TGI was more than 100 µM.

Molecule `O=C(/C=C/c1ccc2c(c1)OCO2)Cc1nc2ccccc2[nH]c1=O` gave a TGI of more than 100 µM.

For `O=[N+]([O-])/C(Cl)=C(\NCCN/C(C(Cl)=C(Cl)Cl)=C(/Cl)[N+](=O)[O-])C(Cl)=C(Cl)Cl`, the TGI is more than 100 µM.

Take `Cc1ccc(NC(=O)/C(Cc2nc3ccc([N+](=O)[O-])cc3[nH]c2=O)=N\NC(=O)C[n+]2ccccc2)c(C)c1`: the TGI is more than 100 µM.

Consider `COc1ccc(/C=N/n2c(C)nc3c(sc(=S)n3-c3ccccc3)c2=O)cc1`, for which the TGI is more than 100 µM.

Consider `CCN1C(=O)C(=C/C=C/c2ccc(N(CC)CC)cc2)C(=O)N(CC)C1=S`, for which the TGI is more than 100 µM.

Take `CC1=NNC(=O)C1C1CC(c2c[nH]c3ccccc23)=NN=C1Cl` (configuration not stated): the TGI was more than 100 µM.

With `COc1cc(C2c3cc4c(cc3[C@@H](Nc3ccc5c(c3)OCO5)C3COC(=O)[C@H]23)OCO4)cc(OC)c1O` (some centres not stated), the TGI was 35 µM.

The test system of the next experiment is HCT-116 colon. In words: NCI anticancer screen, dose series, 48 h.
`O=C(CC(C(=O)c1ccco1)c1ccco1)c1ccco1` (configuration not stated) returned a TGI of more than 100 µM.

Turning to `COc1cccc2c1OCC1Cc3ccccc3OC21` (configuration not stated), the TGI is more than 100 µM.

For `O=C1CS(=O)(=O)C(c2cccc(Oc3ccccc3)c2)N1c1cc(Cl)ccc1Cl` (configuration not stated), the TGI is 41.9 µM.

In turn, `COc1ccc(OC)c2sc(N3C(=O)/C(=C/c4cccc([N+](=O)[O-])c4)N=C3c3ccccc3)nc12` displayed a TGI of more than 100 µM.

`CC(C)C(N)C(=O)NC(CCC(=O)NCCCCC(N)C(=O)NCCCNc1ccc([N+](=O)[O-])c2[nH]c3ccccc3c(=O)c12)C(N)=O` (configuration not stated) displayed a TGI of more than 100 µM.

`Cc1cccc(/C(Br)=C2/OC(=O)c3ccccc32)c1` returned a TGI of more than 100 µM.

In the case of `CC#CC(O)(C(=O)OC1CC(C)N(C)C(C)(C)C1)C1CCCC1` (configuration not stated), the TGI was more than 100 µM.

As for `CC1(C)OC2COC3([C@@H]4OC(C)(C)O[C@@H]4CO)OC(C)(C)OC3C2O1` (some centres not stated), the TGI was more than 100 µM.

`CCOC(=O)C1CCC(=O)N1C(=O)c1ccccc1Cl` (configuration not stated) gave a TGI of more than 100 µM.

For the molecule `CCOC(=O)c1ccc(Nc2nc3ccc(C(F)(F)F)cc3nc2C(=O)OCC)cc1`, the TGI was more than 100 µM.

As for `COc1ccc(C2c3cc4c(cc3OC(NCCO)C2C)OCO4)cc1` (configuration not stated), the TGI came to 31 µM.

`COc1cc(/C=C2\CCC(C)/C(=C\c3cc(OC)c(OC)c(OC)c3)C2=O)cc(OC)c1OC` (configuration not stated): the TGI was more than 100 µM.

For `COC(=O)[C@H](Cc1ccccc1)NC(=O)N(CCC#N)CCN(C(=O)N[C@@H](Cc1ccccc1)C(=O)OC)c1ccccc1`, the TGI worked out at 82.5 µM.

Turning to `C/C(=N\Nc1nc2ccccc2s1)c1ccc2ccccc2n1`, the TGI is more than 100 µM.

With `CN1N=C(c2ccncc2)OC1c1ccccc1F` (configuration not stated), the TGI was more than 100 µM.

`O=C(/C=C/c1ccc2c(c1)OCO2)Cc1nc2ccccc2[nH]c1=O` yielded a TGI of more than 100 µM.

In turn, `O=[N+]([O-])/C(Cl)=C(\NCCN/C(C(Cl)=C(Cl)Cl)=C(/Cl)[N+](=O)[O-])C(Cl)=C(Cl)Cl` yielded a TGI of more than 100 µM.

`Cc1ccc(NC(=O)/C(Cc2nc3ccc([N+](=O)[O-])cc3[nH]c2=O)=N\NC(=O)C[n+]2ccccc2)c(C)c1` registered a TGI of more than 100 µM.

The molecule `COc1ccc(/C=N/n2c(C)nc3c(sc(=S)n3-c3ccccc3)c2=O)cc1` came in with a TGI of more than 100 µM.

`CCN1C(=O)C(=C/C=C/c2ccc(N(CC)CC)cc2)C(=O)N(CC)C1=S`: the TGI was more than 100 µM.
